Marks after values point to notes of the source that are not given here.
Legend:
Plasmopara viticola = assay: Test D: grape downy mildew, spray after inoculation of grape seedlings; type: in vivo
Source text: Upon removal, disease ratings were made. […] A dash (-) indicates no test results.

Phytophthora infestans = assay: whole plant or invertebrate; type: in vivo
Septoria tritici = assay: Test J: wheat leaf blotch, preventive spray on wheat seedlings; type: in vivo
Source text: A dash (-) indicates no test results.

fusarium graminearium = assay: Test I: wheat head scab, preventive spray on wheat seedlings
Procedure: (the causal agent of wheat head scab) and incubated in a saturated atmosphere at 20° C. for 72 h, and then moved to a growth chamber at 22° C. for 5 days, after which disease ratings were made.

[1] = tested on: Puccinia recondita f. sp. tritici; assay: Test K: wheat leaf rust, preventive spray on wheat seedlings
Botrytis cinerea = assay: Test E: tomato botrytis, preventive spray on tomato seedlings
Septoria nodorum = assay: Test H: wheat glum blotch, preventive spray on wheat seedlings
Procedure: (the causal agent of wheat glum blotch) and incubated in a saturated atmosphere at 20° C. for 48 h, and then moved to a growth chamber at 22° C. for 5 days, after which disease ratings were made.

[2] = tested on: Erysiphe graminis f. sp. tritici; assay: Test L: wheat powdery mildew, preventive spray on wheat seedlings
Pythium aphanidermatum = assay: Test A: bluegrass pythium blight, preventive spray on bluegrass seedlings
Rhizoctonia oryzae = assay: Test G: turf brown patch, preventive spray on creeping bent grass seedlings
Procedure: (the causal agent of turf brown patch) and incubated in a saturated atmosphere at 27° C. for 24 h, and then moved to a growth chamber at 27° C. for 5 days, after which disease ratings were made.

[3] = tested on: Colletotrichum orbiculare; assay: Test B: cucumber Colletotrichum anthracnose, preventive spray on cucumber seedlings
[4] = 40 ppm (marked *), 100 = 100% disease control, 0 = no control
[5] = 200 ppm, 100 = 100% disease control, 0 = no control
[6] = 200 ppm, 100 = 100% disease control, 0 = no control relative to controls

| Structure (SMILES) | Test D disease control rating (Plasmopara viticola; [4]) | Test F disease control rating (Phytophthora infestans; [4]) | Test J disease control rating (Septoria tritici; [4]) | Test I disease control rating (fusarium graminearium; [4]) | Test E disease control rating (Botrytis cinerea; [4]) | Test L disease control rating [2, 4] | Test A disease control rating (Pythium aphanidermatum; [4]) | Test G disease control rating (Rhizoctonia oryzae; [4]) | Test B disease control rating [3, 4] | Test D disease control rating (Plasmopara viticola; 40 ppm (*)) | Test F disease control rating (Phytophthora infestans; 40 ppm (*)) | Test J disease control rating (Septoria tritici; 40 ppm (*)) | Test I disease control rating (fusarium graminearium; 40 ppm (*)) | Test K disease control rating ([1]; 40 ppm (*)) | Test E disease control rating (Botrytis cinerea; 40 ppm (*)) | Test H disease control rating (Septoria nodorum; 40 ppm (*)) | Test L disease control rating ([2]; 40 ppm (*)) | Test A disease control rating (Pythium aphanidermatum; 40 ppm (*)) | Test G disease control rating (Rhizoctonia oryzae; 40 ppm (*)) | Test B disease control rating ([3]; 40 ppm (*)) | further results |
| --- | --- | --- | --- | --- | --- | --- | --- | --- | --- | --- | --- | --- | --- | --- | --- | --- | --- | --- | --- | --- | --- |
| CC(C)Cn1c(-c2c(F)cccc2F)c(Cl)nc(-n2cccc2C#N)c1=O [compound 325] | 0* % | 0* % | 7* % | 0* % | 0* % | 0* % | 0* % | 0* % | 0* % |  |  |  |  |  |  |  |  |  |  |  | Test K disease control rating [1, 5]: 0%; Test H disease control rating (Septoria nodorum; [5]): 0% |
| CC(C)Cn1c(-c2cc(C(F)(F)F)cc(C(F)(F)F)c2)c(Cl)nc(-n2cccn2)c1=O [compound 150] |  |  |  |  |  |  |  |  |  | 0* % | 0* % | 0* % | 0* % | 0* % | 0* % | 0* % | 0* % | 0* % | 0* % | 0* % |  |
| CC(=O)N=c1c(C#N)nc(C)c(-c2ccccc2)n1CC(C)C [compound 431] |  |  |  |  |  |  |  |  |  |  |  |  |  |  |  |  |  |  |  |  | Test D disease control rating (Plasmopara viticola; [6]): 46%; Test F disease control rating (Phytophthora infestans; [6]): 0%; Test J disease control rating (Septoria tritici; [6]): 0%; Test I disease control rating (fusarium graminearium; [6]): 28%; Test K disease control rating [1, 6]: 32%; Test E disease control rating (Botrytis cinerea; [6]): 37%; Test H disease control rating (Septoria nodorum; [6]): 0%; Test L disease control rating [2, 6]: 0%; Test A disease control rating (Pythium aphanidermatum; [6]): 88%; Test G disease control rating (Rhizoctonia oryzae; [6]): 16%; Test B disease control rating [3, 6]: 0% |
| CCC(CC)n1c(-c2c(F)cccc2F)c(Cl)nc(-n2cccn2)c1=O [compound 181] |  |  |  |  |  |  |  |  |  | 0* % | 0* % | 100* % | 0* % | 100* % | 99* % | 99* % | 98* % | 0* % | 100* % | 51* % |  |
| CSCC(C)n1c(-c2c(F)cccc2F)c(Cl)nc(-n2ccc(C)n2)c1=O (centres unmarked) [compound 309] | 0* % | 0* % | 5* % | 0* % | 99* % | 0* % | 0* % | 0* % | 0* % |  |  |  |  |  |  |  |  |  |  |  | Test K disease control rating [1, 4]: 0* %; Test H disease control rating (Septoria nodorum; [4]): 0* % |
| CCc1ccccc1-c1c(Cl)nc(-n2cccn2)c(=O)n1CC(C)C [compound 197] |  |  |  |  |  |  |  |  |  | 0* % | 0* % | 23* % | 0* % | 0* % | 41* % | 0* % | 0* % | 0* % | 16* % | 0* % |  |
| CC(C)c1c(Cl)nc(-n2cccn2)c(=O)n1-c1ccccc1 [compound 306] |  |  |  |  |  |  |  |  |  |  |  |  |  |  |  |  |  |  |  |  | Test D disease control rating (Plasmopara viticola; [5]): 0%; Test F disease control rating (Phytophthora infestans; [5]): 30%; Test J disease control rating (Septoria tritici; [5]): 44%; Test I disease control rating (fusarium graminearium; [5]): 0%; Test K disease control rating [1, 5]: 51%; Test E disease control rating (Botrytis cinerea; [5]): 0%; Test H disease control rating (Septoria nodorum; [5]): 0%; Test L disease control rating [2, 5]: 0%; Test A disease control rating (Pythium aphanidermatum; [5]): 0%; Test G disease control rating (Rhizoctonia oryzae; [5]): 0%; Test B disease control rating [3, 5]: 0% |
| Cc1ccn(-c2nc(Cl)c(-c3c(F)cccc3F)n(-c3ccc(F)cc3)c2=O)n1 [compound 383] | 0* % | 0* % | 100* % | 0* % | 99* % | 99* % | 0* % | 49* % | 63* % |  |  |  |  |  |  |  |  |  |  |  | Test K disease control rating [1, 4]: 100* %; Test H disease control rating (Septoria nodorum; [4]): 100* % |
| CC(C)Cn1c(-c2c(F)c(F)c(F)c(F)c2F)c(Cl)nc(-n2cccn2)c1=O [compound 171] |  |  |  |  |  |  |  |  |  | 0* % | 0* % | 52* % | 0* % | 96* % | 100* % | 82* % | 99* % | 0* % | 95* % |  | Test B disease control rating ([3]; 200 ppm): 0% |
| CC(C)Cn1c(-c2c(F)cccc2F)c(Cl)nc(N2CCCC2)c1=O [compound 314] |  |  |  |  |  |  |  |  |  |  |  |  |  |  |  |  |  |  |  |  | Test D disease control rating (Plasmopara viticola; [5]): 0%; Test F disease control rating (Phytophthora infestans; [5]): 0%; Test J disease control rating (Septoria tritici; [5]): 0%; Test I disease control rating (fusarium graminearium; [5]): 18%; Test K disease control rating [1, 5]: 0%; Test E disease control rating (Botrytis cinerea; [5]): 0%; Test H disease control rating (Septoria nodorum; [5]): 0%; Test L disease control rating [2, 5]: 0%; Test A disease control rating (Pythium aphanidermatum; [5]): 88%; Test G disease control rating (Rhizoctonia oryzae; [5]): 0%; Test B disease control rating [3, 5]: 0% |
| CCCCn1c(-c2c(F)cccc2F)c(Cl)nc(-n2cccn2)c1=O [compound 148] |  |  |  |  |  |  |  |  |  |  |  | 100* % |  | 97* % | 99* % | 100* % | 98* % |  | 81* % | 47* % | Test D disease control rating (Plasmopara viticola; 200 ppm): 73%; Test F disease control rating (Phytophthora infestans; 200 ppm): 0%; Test I disease control rating (fusarium graminearium; 200 ppm): 0%; Test A disease control rating (Pythium aphanidermatum; 200 ppm): 0% |
| Cc1cccc(-n2c(-c3c(F)cccc3F)c(Cl)nc(-n3cccn3)c2=O)c1 [compound 326] | 0* % | 0* % | 97* % | 0* % | 99* % | 94* % | 0* % | 16* % | 0* % |  |  |  |  |  |  |  |  |  |  |  | Test K disease control rating [1, 4]: 97* %; Test H disease control rating (Septoria nodorum; [4]): 100* % |
| O=c1c(-n2cccn2)nc(Cl)c(-c2c(F)cccc2F)n1C1CC1c1ccccc1 (centres unmarked) [compound 362] |  |  | 0* % |  | 0* % | 0* % |  | 0* % | 0* % |  |  |  |  |  |  |  |  |  |  |  | Test D disease control rating (Plasmopara viticola; [5]): 0%; Test F disease control rating (Phytophthora infestans; [5]): 0%; Test I disease control rating (fusarium graminearium; [5]): 0%; Test K disease control rating [1, 4]: 0* %; Test H disease control rating (Septoria nodorum; [4]): 0* %; Test A disease control rating (Pythium aphanidermatum; [5]): 0% |

Reference: patent US20080194585A1, “Fungicidal Pyrazine Derivatives” (priority 2005, published 2008)
